Results from ChEMBL document CHEMBL1139932, “Structure-based organic synthesis of unnatural aeruginosin hybrids as potent inhibitors of thrombin” (Bioorg Med Chem Lett, 2007).

What follows are molecules tested against Prothrombin (Homo sapiens, UniProt P00734) (assay: Inhibition of thrombin).

| SMILES | IC50 |
| --- | --- |
| CC[C@@H](C)[C@@H](NC(=O)[C@H](O)Cc1ccccc1)C(=O)N1CCC[C@H]1C(=O)NCc1ccc(C(=N)N)cc1 | 7 nM |
| CC(C)[C@H](Cl)[C@@H](NC(=O)[C@H](O)Cc1ccccc1)C(=O)N1[C@H](C(=O)NCc2ccc(C(=N)N)cc2)C[C@@H]2CCCC[C@@H]21 | 1.6 nM |
| CC[C@H](C)[C@@H](N)C(=O)N1[C@H](C(=O)NCc2ccc(C(=N)N)cc2)C[C@@H]2CCCC[C@@H]21 | 101 nM |
| CO[C@H](CO)C(=O)N[C@@H](C(=O)N1[C@H](C(=O)NCCC2=CCN(C(=N)N)C2)C[C@@H]2C[C@H](O)[C@@H](O)C[C@@H]21)[C@@H](Cl)C(C)C | 11 nM |
| N=C(N)c1ccc(CNC(=O)[C@@H]2C[C@@H]3CCCC[C@@H]3N2C(=O)C(NC(=O)[C@H](O)Cc2ccccc2)C2CCCCC2)cc1 (stereo partly specified) | 3.4 nM |
| CC[C@H](C)[C@@H](NC(=O)[C@H](O)Cc1ccccc1)C(=O)N1[C@H](C(=O)NCc2ccc(C(=N)N)cc2)C[C@@H]2CCCC[C@@H]21 | 3.3 nM |

Further molecules by falling IC50, results first:

| IC50 | SMILES |
| --- | --- |
| 5600 nM | CC(C)C[C@@H](NC(=O)[C@H](O)Cc1ccccc1)C(=O)N1[C@H](C(=O)NCCCCN=C(N)N)C[C@@H]2CC[C@@H](O)C[C@@H]21 |
| 1500 nM | CC(C)C[C@@H](NC(=O)[C@H](O)Cc1ccccc1)C(=O)N1[C@H](C(=O)NCCCCN=C(N)N)C[C@@H]2CCCC[C@@H]21 |
| 786 nM | CC[C@H](C)[C@@H](NC(C)=O)C(=O)N1[C@H](C(=O)NCc2ccc(C(=N)N)cc2)C[C@@H]2CCCC[C@@H]21 |
| 334 nM | CC[C@H](C)[C@@H](NC(=O)CCc1ccccc1)C(=O)N1[C@H](C(=O)NCc2ccc(C(=N)N)cc2)C[C@@H]2CCCC[C@@H]21 |
| 310 nM | CC(C)[C@H](Cl)[C@@H](NC(=O)[C@H](O)Cc1ccccc1)C(=O)N1[C@H](C(=O)NCCCCN=C(N)N)C[C@@H]2CC[C@@H](O)C[C@@H]21 |
| 220 nM | CC(C)C[C@@H](NC(=O)[C@H](O)Cc1ccccc1)C(=O)N1[C@H](C(=O)NCCC2=CCN(C(=N)N)C2)C[C@@H]2CC[C@@H](O)C[C@@H]21 |
| 171 nM | CC[C@H](C)C(NC(=O)OC(C)(C)C)C(=O)N1[C@H](C(=O)NCc2ccc(C(=N)N)cc2)C[C@@H]2CCCC[C@@H]21 (single isomer, unassigned) |
| 120 nM | CC(C)C[C@@H](NC(=O)[C@H](O)Cc1ccccc1)C(=O)N1[C@H](C(=O)NCCC2=CCN(C(=N)N)C2)C[C@@H]2CCCC[C@@H]21 |
| 97 nM | CC(C)C[C@@H](NC(=O)[C@H](O)Cc1ccccc1)C(=O)N1[C@H](C(=O)NCc2ccc(C(=N)N)cc2)C[C@@H]2CCCC[C@@H]21 |
| 53 nM | CC[C@H](C)C(NC(=O)[C@@H](C)O)C(=O)N1[C@H](C(=O)NCc2ccc(C(=N)N)cc2)C[C@@H]2CCCC[C@@H]21 (single isomer, unassigned) |
